In patent US20220290095A1, “Bifidobacterium breve CCFM1025, Food Fermented Thereby and Application Thereof” (Jiangnan University, priority 2018, published 2022):

How the values were obtained:
5-HT in the serum = test: 5-HT in serum of depressed mice (ELISA); format: in vivo, C57BL/6J mice; settings: concluded from serum 5-HT, FIG. 4
Method: (§1) 32 6-week-old male C57BL/6J mice were selected. After one week of adaptation to the environment, the mice were randomly divided into four groups according to body weight: a control group, a model group, a fluoxetine intervention group, and a CCFM1025 intervention group, each containing 8 mice.
(§2) Chronic unpredictable stress depression mouse model: 1-2 kinds of stimuli were randomly performed every day, and the performance time of stimuli every day was determined randomly to avoid the circadian rhythm. Each method was used for not more than three times, and the stimuli were performed for five weeks. The stimuli include: (1) fasting for 24 h; (2) water deprivation+empty bottle stimulus for 24 h; (3) tail pinching for 3 min; (4) wet padding for 24 h; (5) immobilization for 1-2 h; (6) […] for 24 h; (7) continuous lighting for 24 h; (8) no padding for 24 h; (9) forced swim for 15 min; and (10) separation for 24 h.
Lactic acid bacteria gavage: the activated second generation of Bifidobacterium CCFM1025 was taken and cultured at 37° C. for 24 h, and the bacteria were collected after centrifugation at 4° C. and 8000 r/min for 3 min. […]
The serum collected in Example 3 was taken and the content of 5-HT in the serum was measured using an ELISA kit. […]

[1] = system: depressed mice (chronic unpredictable stress depression mouse model); test: Depression-like behaviors of depressed mice (behavioral tests overall); format: in vivo, C57BL/6J mice
Method: as §1, §2
Lactic acid bacteria gavage: the activated second generation of Bifidobacterium CCFM1025 was taken and cultured at 37° C. for 24 h, and the bacteria were collected after centrifugation at 4° C. and 8000 r/min for 3 min. The supernatant was discarded and the bacteria were resuspended with 5% sterilized skim milk to make the concentration of lactic acid bacteria reach 5×10^9 CFU/mL. The gavage volume is 0.2 mL/mouse/day. […]

SMILES: CNCCC(Oc1ccc(C(F)(F)F)cc1)c1ccccc1 (centres unmarked) [fluoxetine]
- intestinal peristalsis / intestinal function (5-HT in the serum): cannot improve the intestinal function
- depression-like behaviors / antidepressant effect [1]: has an antidepressant effect
